Experimental data published in patent US20050227956A1, “Control of mold growth on wood” (priority 2004, published 2005).
Where two headings read alike, the source gives them in different places. Marks after values point to notes of the source that are not given here.

Legend:
Test in all cases: Six-well plate screening test
[1] = tested on: Aureobasidium pullulans; format: cell-based
[2] = tested on: Cladosporium cladosporioides; format: cell-based
[3] = tested on: Trichoderma virens; format: cell-based
[4] = tested on: Aspergillus niger; format: cell-based
[5] = tested on: Penicillium funiculosum; format: cell-based
[6] = tested on: Alternaria alternata; format: cell-based
[7] = tested on: Stachybotrus charatrum; format: cell-based
[8] = tested on: Mold from ACQ wood; format: cell-based, cephalosporium; conditions: 10 days of incubation at room temperature
[9] = 10 days of incubation at room temperature
[10] = single moldicide or ACQ-C alone, incubation period 14 days
[11] = single moldicide, incubation period 21 days

| Compound | Minimum Inhibitory Concentrations (MIC) [1, 9] | Minimum Inhibitory Concentrations (MIC) [2, 9] | Minimum Inhibitory Concentrations (MIC) [3, 9] | Minimum Inhibitory Concentrations (MIC) [4, 9] | Minimum Inhibitory Concentrations (MIC) [5, 9] | Minimum Inhibitory Concentrations (MIC) [6, 9] | Minimum Inhibitory Concentrations (MIC) [7, 9] | other results |
| --- | --- | --- | --- | --- | --- | --- | --- | --- |
| COC(=O)Nc1nc2ccccc2[nH]1 [Carbendazim, methyl benzimidazol-2-ylcarbamate] | 0.1 mg/kg | 1^a mg/kg | 1 mg/kg | 5 mg/kg | 1 mg/kg | >100 mg/kg | – | – |
| CO/C=C(/C(=O)OC)c1ccccc1Oc1cc(Oc2ccccc2C#N)ncn1 [Azoxystrobin, methyl (E)-2-{2-[6-(2-cyanophenoxy)pyrimidin-4-yloxy]phenyl}-3-methoxyacrylate] | >100 mg/kg | >100 mg/kg | >100 mg/kg | >100 mg/kg | >100 mg/kg | >100 mg/kg | 25 mg/kg | – |
| CC(C)(C)C(=O)C(Oc1ccc(Cl)cc1)n1cncn1 (racemic) [Tridimefon, (RS)-1-(4-chlorophenoxy)-3,3-dimethyl-1-(1H-1,2,4-triazol-1-yl)butan-2-one] | >100 mg/kg | >100 mg/kg | >100 mg/kg | >100 mg/kg | >100 mg/kg | >100 mg/kg | >100 mg/kg | – |
| CC(Cc1ccc(C(C)(C)C)cc1)CN1C[C@@H](C)O[C@@H](C)C1 (mixture of isomers) [Fenpropimorph, (RS)-cis-4-[3-(4-tert-butylphenyl)-2-methylpropyl]-2,6-dimethylmorpholine] | 10 mg/kg | 50 mg/kg | 10 mg/kg | >100 mg/kg | >100 mg/kg | 50 mg/kg | 10 mg/kg | – |
| CC1(c2ccc(Oc3ccccc3)cc2)OC(=O)N(Nc2ccccc2)C1=O (racemic) [FAMOXATE, (RS)-3-anilino-5-methyl-5-(4-phenoxyphenyl)-1,3-oxazolidine-2,4-dione] | >100 mg/kg | >100 mg/kg | >100 mg/kg | >100 mg/kg | >100 mg/kg | >100 mg/kg | >100 mg/kg | – |
| Cc1cc(C2CC2)nc(Nc2ccccc2)n1 [Cyprodinil, 4-cyclopropyl-6-methyl-N-phenylpyrimidin-2-amine] | 100 mg/kg | 100 mg/kg | >100 mg/kg | 10 mg/kg | 100 mg/kg | 10 mg/kg | – | MIC [7, 10]: 100 mg/kg; MIC [7, 11]: 100 mg/kg; MIC [1, 10]: 100 mg/kg; MIC [1, 11]: >100 mg/kg; Minimum Inhibitory Concentrations (MIC) [8]: >100 mg/kg; MIC [2, 10]: 100 mg/kg; MIC [2, 11]: >100 mg/kg; MIC [3, 10]: 100 mg/kg; MIC [3, 11]: >100 mg/kg; MIC [4, 10]: 100 mg/kg; MIC [4, 11]: >100 mg/kg; MIC [5, 10]: 100 mg/kg; MIC [5, 11]: 100 mg/kg; MIC [6, 10]: 12.5 mg/kg; MIC [6, 11]: 50 mg/kg |
| S=C([S-])NCCNC(=S)[S-].[Na+].[Na+] [Nabam, disodium ethylenebis(dithiocarbamate)] | 100 mg/kg | 100 mg/kg | 100 mg/kg | 100 mg/kg | >100 mg/kg | >100 mg/kg | 100 mg/kg | – |
| bis(8-hydroxyquinolinium) sulfate [8-hydroxyquinoline] | – | – | – | – | – | – | – | Minimum Inhibitory Concentrations (MIC) [7]: 10 mg/kg; Minimum Inhibitory Concentrations (MIC) [1]: 50 mg/kg; Minimum Inhibitory Concentrations (MIC) [2]: 25 mg/kg; Minimum Inhibitory Concentrations (MIC) [3]: 25 mg/kg; Minimum Inhibitory Concentrations (MIC) [4]: 100 mg/kg; Minimum Inhibitory Concentrations (MIC) [5]: 25 mg/kg; Minimum Inhibitory Concentrations (MIC) [6]: 25 mg/kg |
| CC1=C(C(=O)Nc2ccccc2)SCCO1 [Carboxin, 5,6-dihydro-2-methyl-1,4-oxathiine-3-carboxanilide] | 100 mg/kg | 100 mg/kg | – | >100 mg/kg | >100 mg/kg | >100 mg/kg | 100 mg/kg | Minimum Inhibitory Concentrations (MIC) [8]: >100 mg/kg |
| CCNC(=O)NC(=O)C(C#N)=NOC [Cymoxinil, 1-(2-cyano-2-methoxyiminoacetyl)-3-ethylurea] | >100 mg/kg | >100 mg/kg | >100 mg/kg | 10 mg/kg | >100 mg/kg | >100 mg/kg | >100 mg/kg | MIC [1, 10]: >100 mg/kg; MIC [2, 10]: >100 mg/kg; MIC [3, 10]: >100 mg/kg; MIC [4, 10]: >100 mg/kg; MIC [5, 10]: >100 mg/kg; MIC [6, 10]: >100 mg/kg |
| CC(C)NC(=O)N1CC(=O)N(c2cc(Cl)cc(Cl)c2)C1=O [Iprodione, 3-(3,5-dichlorophenyl)-N-isopropyl-2,4-dioxoimidazolidine-1-carboxamide] | >100 mg/kg | >101 mg/kg | >100 mg/kg | 10 mg/kg | >102 mg/kg | 100 mg/kg | – | – |
| CC(C)(C)C(O)C(Oc1ccc(Cl)cc1)n1cncn1 (stereo not drawn) [BAYTAN, (1RS,2RS; 1RS,2SR)-1-(4-chlorophenoxy)-3,3-dimethyl-1-(1H-1,2,4-triazol-1-yl)butan-2-ol] | 50 mg/kg | 50 mg/kg | >100 mg/kg | >100 mg/kg | >100 mg/kg | >100 mg/kg | >100 mg/kg | – |
| N#Cc1c[nH]cc1-c1cccc(Cl)c1Cl [Fenpiclonil, 4-(2,3-dichlorophenyl)-1H-pyrrole-3-carbonitrile] | 50 mg/kg | 10 mg/kg | >100 mg/kg | 1 mg/kg | >100 mg/kg | 50 mg/kg | 10 mg/kg | – |
| N#CSCSc1nc2ccccc2s1 [TCMBT, 2-(thiocyanomethylthio)benzothiazole] | 300 mg/kg | 30 mg/kg | 3 mg/kg | – | 30 mg/kg | 300 mg/kg | 3 mg/kg | MIC [1, 10]: 300 mg/kg; MIC [2, 10]: 30 mg/kg; MIC [3, 10]: 3 mg/kg; MIC [5, 10]: 30 mg/kg; MIC [6, 10]: 300 mg/kg |
| CCCCNC(=O)n1c(NC(=O)OC)nc2ccccc21 [Benomyl, methyl 1-(butylcarbamoyl)benzimidazol-2-ylcarbamate] | 100 mg/kg | 1^a mg/kg | 1 mg/kg | 10 mg/kg | 1 mg/kg | >100 mg/kg | – | – |
| O=[N+]([O-])c1cc(C(F)(F)F)c(Cl)c([N+](=O)[O-])c1Nc1ncc(C(F)(F)F)cc1Cl [Fluazinam, 3-chloro-N-(3-chloro-5-trifluoromethyl-2-pyridyl)-alpha,alpha,alpha-trifluoro-2,6-dinitro-p-toluidine] | 1 mg/kg | 1 mg/kg | >100 mg/kg | 1 mg/kg | 10 mg/kg | 10 mg/kg | – | – |
